The values below come from patent US20050014789A1, “Amide derivatives as selective serotonin re-uptake inhibitors” (Pfizer Inc, priority 2003, published 2005).

Common to all, as to format: cell-based
Assay [1] addresses T1, human serotonin transporter (hSERT) (Homo sapiens, UniProt P31645).
T1 construct: expressed in transfected cells
Briefly: Inhibition of 3H-serotonin uptake in HEK-293 cells expressing hSERT. Conditions: HEK-293 hSERT cells, 3H-5HT 50 nM, 5 min incubation; read-out: serotonin re-uptake inhibition (SRI) IC50. The protocol:
(§1) Cells were harvested for the assay to yield a cell suspension of 750,000 cells/ml. […] Assays were carried out in 96-well filter bottom plates. […] All reactions were carried out at room temperature in a shaking incubator. Incubation times were 5 minutes for the hSERT and hDAT assays and 15 minutes for the hNET assay. Reactions were terminated by removal of the reaction mixture using a vacuum manifold followed by rapid washing with ice cold assay buffer. The quantity of ^3H-substrate incorporated into the cells was then quantified. Assay plates were dried in a microwave oven, scintillation fluid added, and radioactivity measured. […] Note: The pH of the buffer was adjusted to 7.40 with 1M NaOH before addition of CaCl2 and pargyline.

The target of assay [2] is T2, noradrenaline transporter (hNET) (Homo sapiens, UniProt P23975).
T2 construct: expressed in transfected cells
The assay is described as follows: Inhibition of 3H-noradrenaline uptake in HEK-293 cells expressing hNET. The protocol:
Cells were harvested for the assay to yield a cell suspension of 750,000 cells/ml. All test compounds were dissolved in 100% DMSO and diluted down in assay buffer to give appropriate test concentrations. Assays were carried out in 96-well filter bottom plates. […] All reactions were carried out at room temperature in a shaking incubator. Incubation times were 5 minutes for the hSERT and hDAT assays and 15 minutes for the hNET assay. Reactions were terminated by removal of the reaction mixture using a vacuum manifold followed by rapid washing with ice cold assay buffer. The quantity of ^3H-substrate incorporated into the cells was then quantified. Assay plates were dried in a microwave oven, scintillation fluid added, and radioactivity measured. […] Note: The pH of the buffer was adjusted to 7.40 with 1M NaOH before addition of CaCl2 and pargyline. [table]

Assay [3] concerns the target T3, dopamine transporter (hDAT) (Homo sapiens, UniProt Q01959).
T3 construct: expressed in transfected cells
The assay is described as follows: Inhibition of 3H-dopamine uptake in HEK-293 cells expressing hDAT. Here is the method:
as §1

T2 sequence (P23975 whole entry): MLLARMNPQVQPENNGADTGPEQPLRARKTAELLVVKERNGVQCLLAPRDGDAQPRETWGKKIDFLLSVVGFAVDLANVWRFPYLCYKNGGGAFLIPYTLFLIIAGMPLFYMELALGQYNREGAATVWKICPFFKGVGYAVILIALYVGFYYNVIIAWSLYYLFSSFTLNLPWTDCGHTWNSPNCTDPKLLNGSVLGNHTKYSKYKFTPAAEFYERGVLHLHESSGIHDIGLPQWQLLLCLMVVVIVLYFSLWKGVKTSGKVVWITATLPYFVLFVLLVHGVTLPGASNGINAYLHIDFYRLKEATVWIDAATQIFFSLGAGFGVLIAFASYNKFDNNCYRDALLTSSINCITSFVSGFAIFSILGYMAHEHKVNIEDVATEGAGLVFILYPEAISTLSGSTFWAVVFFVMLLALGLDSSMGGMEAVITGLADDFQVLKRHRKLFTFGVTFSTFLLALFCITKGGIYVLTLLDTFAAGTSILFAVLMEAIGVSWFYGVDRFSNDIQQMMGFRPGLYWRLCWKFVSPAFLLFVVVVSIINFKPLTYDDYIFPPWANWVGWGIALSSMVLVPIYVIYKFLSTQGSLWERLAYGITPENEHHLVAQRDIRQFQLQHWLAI
T3 sequence (Q01959 whole entry): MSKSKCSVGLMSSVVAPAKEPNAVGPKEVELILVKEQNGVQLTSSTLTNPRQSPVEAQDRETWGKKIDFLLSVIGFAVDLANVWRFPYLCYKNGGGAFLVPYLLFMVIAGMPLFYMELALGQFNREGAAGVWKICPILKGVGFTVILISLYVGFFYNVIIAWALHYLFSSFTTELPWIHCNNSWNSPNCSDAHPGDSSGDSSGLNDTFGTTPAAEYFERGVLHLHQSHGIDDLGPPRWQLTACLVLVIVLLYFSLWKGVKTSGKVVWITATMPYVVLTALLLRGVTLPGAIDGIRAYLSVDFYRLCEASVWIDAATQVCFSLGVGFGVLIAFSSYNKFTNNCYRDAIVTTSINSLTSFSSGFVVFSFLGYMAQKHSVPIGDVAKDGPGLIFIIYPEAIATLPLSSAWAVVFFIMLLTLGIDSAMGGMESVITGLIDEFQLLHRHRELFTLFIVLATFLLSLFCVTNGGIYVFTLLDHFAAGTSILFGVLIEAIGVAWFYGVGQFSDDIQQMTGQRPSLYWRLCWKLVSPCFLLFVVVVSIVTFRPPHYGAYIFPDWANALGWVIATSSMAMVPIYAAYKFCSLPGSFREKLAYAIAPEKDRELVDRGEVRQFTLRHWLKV
T1 sequence (P31645 whole entry): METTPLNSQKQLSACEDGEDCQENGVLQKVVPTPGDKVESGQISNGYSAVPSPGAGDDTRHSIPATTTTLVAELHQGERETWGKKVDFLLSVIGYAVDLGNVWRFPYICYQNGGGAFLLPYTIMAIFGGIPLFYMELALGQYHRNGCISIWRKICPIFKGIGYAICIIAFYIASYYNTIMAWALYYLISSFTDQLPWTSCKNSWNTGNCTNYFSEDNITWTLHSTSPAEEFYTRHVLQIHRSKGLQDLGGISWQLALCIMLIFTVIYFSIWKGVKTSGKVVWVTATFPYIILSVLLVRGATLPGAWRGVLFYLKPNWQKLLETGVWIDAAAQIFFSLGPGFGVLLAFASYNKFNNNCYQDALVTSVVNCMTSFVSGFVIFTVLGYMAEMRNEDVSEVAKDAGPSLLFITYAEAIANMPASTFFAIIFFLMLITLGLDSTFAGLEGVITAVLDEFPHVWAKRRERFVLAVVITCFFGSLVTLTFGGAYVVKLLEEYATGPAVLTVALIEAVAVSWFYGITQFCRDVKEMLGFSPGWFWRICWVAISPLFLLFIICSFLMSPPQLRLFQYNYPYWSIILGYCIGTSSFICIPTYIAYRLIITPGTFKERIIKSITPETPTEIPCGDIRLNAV

Consider `CC(C)CN(C(=O)c1ccc2ccccc2c1)[C@@H]1CCNC1.Cl` [Example 23, N-Isobutyl-N-[(3R)-pyrrolidin-3-yl]-2-naphthamide hydrochloride], for which the IC50 (commonly the concentration needed to halve the response being measured) in assay [1] was 0.0047 µM; in assay [2] (HEK-293 hNET cells, 3H-Noradrenaline 200 nM, 15 min incubation, read-out: noradrenaline re-uptake inhibition IC50) it was 1.23 µM; in assay [3] (HEK-293 hDAT cells, 3H-Dopamine 200 nM, 5 min incubation, read-out: dopamine re-uptake inhibition IC50), 9.49 µM. For the same molecule, the “fold more potent (serotonin re-uptake) over noradrenaline re-uptake” value in assay [2] (selectivity hSERT vs hNET) is recorded as 261 fold. The “fold more potent (serotonin re-uptake) over dopamine re-uptake” value in assay [3] (selectivity hSERT vs hDAT) was 2018 fold.
